Results: publication PMC5114424, “The Role of Folate Transport in Antifolate Drug Action in Trypanosoma brucei” (The Journal of Biological Chemistry, 2016)

How the values were obtained:
Assay type in all cases: cell-based, Trypanosoma brucei brucei
FT1–3 (TbFT1–3) [1] = test system: T1, FT1–3 (TbFT1–3); experiment: inhibition of [3H]folate uptake, whole cells; settings: 2.0 μM folate ([S] ≅ Km); pH 7.3; read-out: IC50 against folate
T1 construct: native transporters in intact bloodstream-form trypanosomes; 12 predicted transmembrane helices; uptake assigned by RNAi knockdown of all three
Excerpt: inhibition of [3H]folate uptake, whole cells on FT1–3 (TbFT1–3)

FT1–3 (TbFT1–3) [2] = test system: T1, FT1–3 (TbFT1–3); experiment: inhibition of [3H]MTX uptake, whole cells; settings: 13 μM MTX ([S] ≅ Km); pH 7.3; read-out: IC50 against MTX
Excerpt: inhibition of [3H]MTX uptake, whole cells on FT1–3 (TbFT1–3)

FT1–3 (TbFT1–3) [3] = test system: T1, FT1–3 (TbFT1–3); experiment: [3H]folic acid uptake, whole cells; settings: transport, 23 °C, pH 7.3; labelled compound
Excerpt: [3H]folic acid uptake, whole cells on FT1–3 (TbFT1–3) | Uptake rates for folate obeyed simple Michaelis-Menten kinetics (Fig. 2D) yielding a Km of […]

FT1–3 (TbFT1–3) [4] = test system: T1, FT1–3 (TbFT1–3); experiment: inhibition of [3H]MTX uptake, whole cells, Lineweaver-Burk / global fit; settings: competitive with MTX; folate 0, 0.5, 1 μM; pH 7.3
FT1–3 (TbFT1–3) [5] = test system: T1, FT1–3 (TbFT1–3); experiment: [3H]MTX uptake, whole cells; settings: transport, 23 °C, pH 7.3; labelled compound
FT1–3 (TbFT1–3) [6] = test system: T1, FT1–3 (TbFT1–3); experiment: inhibition of [3H]folate uptake, whole cells, Lineweaver-Burk / global fit; settings: competitive with folate; MTX 0, 0.5, 1 μM; pH 7.3

| Compound | IC50 (FT1–3 (TbFT1–3) [1]) [nM] | also measured |
| --- | --- | --- |
| CN1c2c(nc(N)[nH]c2=O)NC[C@@H]1CNc1ccc(C(=O)N[C@@H](CCC(=O)O)C(=O)O)cc1 [5-methyl-THF] | 6300 ± 1000 |  |
| Nc1nc2ncc(CNc3ccc(C(=O)N[C@@H](CCC(=O)O)C(=O)O)cc3)nc2c(=O)[nH]1 [folate] |  | IC50 (FT1–3 (TbFT1–3) [2]): 1900 ± 400 nM; Km (FT1–3 (TbFT1–3) [3]): 2.04 ± 0.53 µM; Ki (FT1–3 (TbFT1–3) [4]): 940 ± 210 nM |
| CN(Cc1cnc2nc(N)nc(N)c2n1)c1ccc(C(=O)N[C@@H](CCC(=O)O)C(=O)O)cc1 [methotrexate] | 3400 ± 400 | Km (FT1–3 (TbFT1–3) [5]): 18.4 ± 2.2 µM; Ki (FT1–3 (TbFT1–3) [6]): 480 ± 70 nM |
| Nc1ccc(C(=O)N[C@@H](CCC(=O)O)C(=O)O)cc1 [pABA-Glu] | 30800 ± 3700 |  |
| Cc1nc2ccc(CN(C)c3ccc(C(=O)N[C@@H](CCC(=O)O)C(=O)O)s3)cc2c(=O)[nH]1 [raltitrexed] | 1800 ± 400 |  |
| Nc1nc(=O)c2c(CCc3ccc(C(=O)N[C@@H](CCC(=O)O)C(=O)O)cc3)c[nH]c2[nH]1 [pemetrexed] | 3200 ± 300 |  |
